Laboratory results from patent US20070128217A1 (priority 2003, published 2007).

Assays:
[1] = system: rabbit serum obtained by immunizing a rabbit with the SARS-CoV strain Frankfurt 1; type: binding; design: Binding of a rabbit serum to linear peptides / Binding of a rabbit serum to looped peptides / Rabbit serum linear peptides / Rabbit serum looped peptides / Binding of a rabbit serum to linear peptides of protein N of SARS-CoV Urbani (Rabbit serum linear peptides) / Binding of a rabbit serum to looped/cyclic peptides of protein N of SARS-CoV Urbani (Rabbit serum looped peptides): unit not given here
[2] = system: control sera (pooled serum of ten healthy LUMC hospital workers; commercial negative donor pooled serum from the Dutch bloodbank); type: binding, human
[3] = system: antibodies in sera from SARS patients (sera 1a, 1b, 2, 6, 37, 62, London, SARS-yellow, SARS-green); type: binding, human; design: Binding of serum 6 to linear peptides of protein X1 of SARS-CoV Urbani / Binding of serum 37 to linear peptides of protein X1 of SARS-CoV Urbani / Binding of serum 6 to looped/cyclic peptide (PEPSCAN-ELISA) / Binding of serum 37 to looped/cyclic peptide (PEPSCAN-ELISA) / Binding of serum 37 to looped/cyclic peptides of protein X1 of SARS-CoV Urbani / Binding of serum 6 to linear peptides of protein X2 / Binding of serum 37 to linear peptides of protein X2 / Binding of serum 37 to looped/cyclic peptides of protein X2 of SARS-CoV Urbani / Binding of serum 6 to linear peptides of protein M of SARS-CoV Urbani / Binding of serum 37 to linear peptides of protein M of SARS-CoV Urbani / Binding of serum 6 to looped/cyclic peptides of protein M of SARS-CoV Urbani / Binding of serum 37 to looped/cyclic peptides of protein M of SARS-CoV Urbani / Binding of serum 6 to linear peptides of protein X3 of SARS-CoV Urbani / Binding of serum 37 to linear peptides of protein X3 of SARS-CoV Urbani / Binding of serum 37 to looped/cyclic peptides of protein X3 of SARS-CoV Urbani / Binding of serum 6 to linear peptides of protein X4 of SARS-CoV Urbani / Binding of serum 37 to linear peptides of protein X4 of SARS-CoV Urbani / Binding of serum 37 to looped/cyclic peptides of protein X4 of SARS-CoV Urbani / Binding of serum 6 to linear peptides of protein X5 of SARS-CoV Urbani / Binding of serum 37 to linear peptides of protein X5 of SARS-CoV Urbani / Binding of serum 37 to looped/cyclic peptides of protein X5 of SARS-CoV Urbani / Binding of serum 6 to linear peptides of protein N of SARS-CoV Urbani / Binding of serum 37 to linear peptides of protein N of SARS-CoV Urbani / Binding of serum 6 to linear peptide (PEPSCAN-ELISA) / Binding of serum 1a to looped/cyclic peptides of protein N of SARS-CoV Urbani / Binding of serum 1b to looped/cyclic peptides of protein N of SARS-CoV Urbani / Binding of serum 2 to looped/cyclic peptides of protein N of SARS-CoV Urbani / Binding of serum 6 to looped/cyclic peptides of protein N of SARS-CoV Urbani / Binding of serum 37 to looped/cyclic peptides of protein N of SARS-CoV Urbani / Binding of serum 62 to looped/cyclic peptides of protein N of SARS-CoV Urbani / Binding of serum London to looped/cyclic peptides of protein N of SARS-CoV Urbani / Binding of serum SARS-green to looped/cyclic peptides of protein N of SARS-CoV Urbani: unit not given here

TALRLCAYCCNIVNV
Binding of a rabbit serum to linear peptides [1]: 0.2 | Binding of a rabbit serum to looped peptides [1]: 0.4 | Binding of Control Serum Blood-Bank to Looped peptides [2]: 0.7 | Binding of Control serum Blood-bank to linear peptides [2]: 0.5 | Binding of Control serum LUMC to linear peptides [2]: 0.6 | Binding of Control serum LUMC to looped peptides [2]: 0.7 | Binding of serum 1a to linear peptides of protein E of SARS-CoV Urbani [3]: 0.7 | Binding of serum 1a to looped/cyclic peptides of protein E of SARS-CoV Urbani [3]: 0.7 | Binding of serum 1b to linear peptides of protein E of SARS-CoV Urbani [3]: 0.5 | Binding of serum 1b to looped/cyclic peptides of protein E of SARS-CoV Urbani [3]: 0.4 | Binding of serum 2 to linear peptides of protein E of SARS-CoV Urbani [3]: 0.5 | Binding of serum 2 to looped/cyclic peptides of protein E of SARS-CoV Urbani [3]: 0.8 | Binding of serum 6 to linear peptides of protein E of SARS-CoV Urbani [3]: 0.4 | Binding of serum 6 to looped/cyclic peptides of protein E of SARS-CoV Urbani [3]: 0.6 | Binding of serum 37 to linear peptides of protein E of SARS-CoV Urbani [3]: 0.5 | Binding of serum 37 to looped/cyclic peptides of protein E of SARS-CoV Urbani [3]: 0.7 | Binding of serum 62 to linear peptides of protein E of SARS-CoV Urbani [3]: 0.5 | Binding of serum 62 to looped/cyclic peptides of protein E of SARS-CoV Urbani [3]: 0.9 | Binding of serum London to linear peptides of protein E of SARS-CoV Urbani [3]: 0.5 | Binding of serum London to looped/cyclic peptides of protein E of SARS-CoV Urbani [3]: 0.5 | Binding of serum SARS-green to linear peptides of protein E of SARS-CoV Urbani [3]: 0.6 | Binding of serum SARS-green to looped/cyclic peptides of protein E of SARS-CoV Urbani [3]: 0.7 | Binding of serum SARS-yellow to linear peptides of protein E of SARS-CoV Urbani [3]: 0.2 | Binding of serum SARS-yellow to looped/cyclic peptides of protein E of SARS-CoV Urbani [3]: 0.9

TLIVNSVLLFLAFVV
Binding of a rabbit serum to linear peptides [1]: 0.1 | Binding of a rabbit serum to looped peptides [1]: 0.3 | Binding of Control Serum Blood-Bank to Looped peptides [2]: 0.8 | Binding of Control serum Blood-bank to linear peptides [2]: 0.6 | Binding of Control serum LUMC to linear peptides [2]: 0.4 | Binding of Control serum LUMC to looped peptides [2]: 0.8 | Binding of serum 1a to linear peptides of protein E of SARS-CoV Urbani [3]: 0.7 | Binding of serum 1a to looped/cyclic peptides of protein E of SARS-CoV Urbani [3]: 0.6 | Binding of serum 1b to linear peptides of protein E of SARS-CoV Urbani [3]: 0.5 | Binding of serum 1b to looped/cyclic peptides of protein E of SARS-CoV Urbani [3]: 0.5 | Binding of serum 2 to linear peptides of protein E of SARS-CoV Urbani [3]: 0.4 | Binding of serum 2 to looped/cyclic peptides of protein E of SARS-CoV Urbani [3]: 0.7 | Binding of serum 6 to linear peptides of protein E of SARS-CoV Urbani [3]: 0.5 | Binding of serum 6 to looped/cyclic peptides of protein E of SARS-CoV Urbani [3]: 0.4 | Binding of serum 37 to linear peptides of protein E of SARS-CoV Urbani [3]: 0.5 | Binding of serum 37 to looped/cyclic peptides of protein E of SARS-CoV Urbani [3]: 0.7 | Binding of serum 62 to linear peptides of protein E of SARS-CoV Urbani [3]: 0.3 | Binding of serum 62 to looped/cyclic peptides of protein E of SARS-CoV Urbani [3]: 0.6 | Binding of serum London to linear peptides of protein E of SARS-CoV Urbani [3]: 0.6 | Binding of serum London to looped/cyclic peptides of protein E of SARS-CoV Urbani [3]: 0.4 | Binding of serum SARS-green to linear peptides of protein E of SARS-CoV Urbani [3]: 0.6 | Binding of serum SARS-green to looped/cyclic peptides of protein E of SARS-CoV Urbani [3]: 0.5 | Binding of serum SARS-yellow to linear peptides of protein E of SARS-CoV Urbani [3]: 0.3 | Binding of serum SARS-yellow to looped/cyclic peptides of protein E of SARS-CoV Urbani [3]: 0.6

VDFQVTIAEILIIIM
Rabbit serum linear peptides [1]: 0.3 | Rabbit serum looped peptides [1]: 0.3 | Binding of Control Serum Blood-Bank to Looped peptides of the protein X3 of SARS-CoV Urbani [2]: 0.6 | Binding of Control serum Blood-bank to linear peptides of the protein X3 of SARS-CoV Urbani [2]: 0.8 | Binding of Control serum LUMC to linear peptides of the protein X3 of SARS-CoV Urbani [2]: 0.8 | Binding of Control serum LUMC to looped peptides of the protein X3 of SARS-CoV Urbani [2]: 0.8 | Binding of serum 1a to linear peptides of protein X3 of SARS-CoV Urbani [3]: 0.8 | Binding of serum 1a to looped/cyclic peptides of protein X3 of SARS-CoV Urbani [3]: 0.7 | Binding of serum 1b to linear peptides of protein X3 of SARS-CoV Urbani [3]: 0.5 | Binding of serum 1b to looped/cyclic peptides of protein X3 of SARS-CoV Urbani [3]: 0.4 | Binding of serum 2 to linear peptides of protein X3 of SARS-CoV Urbani [3]: 0.7 | Binding of serum 2 to looped/cyclic peptides of protein X3 of SARS-CoV Urbani [3]: 0.6 | Binding of serum 6 to linear peptides of protein X3 of SARS-CoV Urbani [3]: 0.5 | Binding of serum 6 to looped/cyclic peptides of protein X3 of SARS-CoV Urbani [3]: 0.3 | Binding of serum 37 to linear peptides of protein X3 of SARS-CoV Urbani [3]: 0.5 | Binding of serum 37 to looped/cyclic peptides of protein X3 of SARS-CoV Urbani [3]: 0.6 | Binding of serum 62 to linear peptides of protein X3 of SARS-CoV Urbani [3]: 0.6 | Binding of serum 62 to looped/cyclic peptides of protein X3 of SARS-CoV Urbani [3]: 0.6 | Binding of serum London to linear peptides of protein X3 of SARS-CoV Urbani [3]: 0.6 | Binding of serum London to looped/cyclic peptides of protein X3 of SARS-CoV Urbani [3]: 0.2 | Binding of serum SARS-green to linear peptides of protein X3 of SARS-CoV Urbani [3]: 0.4 | Binding of serum SARS-green to looped/cyclic peptides of protein X3 of SARS-CoV Urbani [3]: 0.3 | Binding of serum SARS-yellow to linear peptides of protein X3 of SARS-CoV Urbani [3]: 0.6 | Binding of serum SARS-yellow to looped/cyclic peptides of protein X3 of SARS-CoV Urbani [3]: 0.8

VNSVLLFLAFVVFLL
Binding of a rabbit serum to linear peptides [1]: 0.2 | Binding of a rabbit serum to looped peptides [1]: 0.4 | Binding of Control Serum Blood-Bank to Looped peptides [2]: 0.5 | Binding of Control serum Blood-bank to linear peptides [2]: 0.5 | Binding of Control serum LUMC to linear peptides [2]: 0.4 | Binding of Control serum LUMC to looped peptides [2]: 0.7 | Binding of serum 1a to linear peptides of protein E of SARS-CoV Urbani [3]: 0.9 | Binding of serum 1a to looped/cyclic peptides of protein E of SARS-CoV Urbani [3]: 0.6 | Binding of serum 1b to linear peptides of protein E of SARS-CoV Urbani [3]: 0.1 | Binding of serum 1b to looped/cyclic peptides of protein E of SARS-CoV Urbani [3]: 0.4 | Binding of serum 2 to linear peptides of protein E of SARS-CoV Urbani [3]: 1.1 | Binding of serum 2 to looped/cyclic peptides of protein E of SARS-CoV Urbani [3]: 0.5 | Binding of serum 6 to linear peptides of protein E of SARS-CoV Urbani [3]: 0.6 | Binding of serum 6 to looped/cyclic peptides of protein E of SARS-CoV Urbani [3]: 0.3 | Binding of serum 37 to linear peptides of protein E of SARS-CoV Urbani [3]: 0.5 | Binding of serum 37 to looped/cyclic peptides of protein E of SARS-CoV Urbani [3]: 0.6 | Binding of serum 62 to linear peptides of protein E of SARS-CoV Urbani [3]: 0.2 | Binding of serum 62 to looped/cyclic peptides of protein E of SARS-CoV Urbani [3]: 0.7 | Binding of serum London to linear peptides of protein E of SARS-CoV Urbani [3]: 1.4 | Binding of serum London to looped/cyclic peptides of protein E of SARS-CoV Urbani [3]: 0.3 | Binding of serum SARS-green to linear peptides of protein E of SARS-CoV Urbani [3]: 0.7 | Binding of serum SARS-green to looped/cyclic peptides of protein E of SARS-CoV Urbani [3]: 0.4 | Binding of serum SARS-yellow to linear peptides of protein E of SARS-CoV Urbani [3]: 0.6 | Binding of serum SARS-yellow to looped/cyclic peptides of protein E of SARS-CoV Urbani [3]: 0.6

VTLAILTALRLCAYC
Binding of a rabbit serum to linear peptides [1]: 0.1 | Binding of a rabbit serum to looped peptides [1]: 0.4 | Binding of Control Serum Blood-Bank to Looped peptides [2]: 0.9 | Binding of Control serum Blood-bank to linear peptides [2]: 0.5 | Binding of Control serum LUMC to linear peptides [2]: 0.6 | Binding of Control serum LUMC to looped peptides [2]: 0.8 | Binding of serum 1a to linear peptides of protein E of SARS-CoV Urbani [3]: 0.6 | Binding of serum 1a to looped/cyclic peptides of protein E of SARS-CoV Urbani [3]: 0.7 | Binding of serum 1b to linear peptides of protein E of SARS-CoV Urbani [3]: 0.5 | Binding of serum 1b to looped/cyclic peptides of protein E of SARS-CoV Urbani [3]: 0.5 | Binding of serum 2 to linear peptides of protein E of SARS-CoV Urbani [3]: 0.6 | Binding of serum 2 to looped/cyclic peptides of protein E of SARS-CoV Urbani [3]: 0.9 | Binding of serum 6 to linear peptides of protein E of SARS-CoV Urbani [3]: 0.3 | Binding of serum 6 to looped/cyclic peptides of protein E of SARS-CoV Urbani [3]: 0.6 | Binding of serum 37 to linear peptides of protein E of SARS-CoV Urbani [3]: 0.4 | Binding of serum 37 to looped/cyclic peptides of protein E of SARS-CoV Urbani [3]: 0.6 | Binding of serum 62 to linear peptides of protein E of SARS-CoV Urbani [3]: 0.4 | Binding of serum 62 to looped/cyclic peptides of protein E of SARS-CoV Urbani [3]: 0.8 | Binding of serum London to linear peptides of protein E of SARS-CoV Urbani [3]: 0.5 | Binding of serum London to looped/cyclic peptides of protein E of SARS-CoV Urbani [3]: 0.5 | Binding of serum SARS-green to linear peptides of protein E of SARS-CoV Urbani [3]: 0.5 | Binding of serum SARS-green to looped/cyclic peptides of protein E of SARS-CoV Urbani [3]: 0.5 | Binding of serum SARS-yellow to linear peptides of protein E of SARS-CoV Urbani [3]: 0.2 | Binding of serum SARS-yellow to looped/cyclic peptides of protein E of SARS-CoV Urbani [3]: 0.7
